For this assay, the system named is T1, 1N4R p-tau.
T1 construct: made in house; host or cells: E. coli (PIMAX system)
The experiment in a line: p-tau aggregation modulator screen of 1280-compound library (ThS fluorescence net change over 16 h). It counts as biochemical.

Setting [1] is: p-tau aggregation modulator screen of 1280-compound library, ThS fluorescence net change.
[2] abbreviates: p-tau aggregation modulator screen of 1280-compound library, […].
[3] abbreviates: 1280-compound library screen, ThS fluorescence net change over 16 h.
The mark [4] stands for this setting: p-tau aggregation modulator screen of the compound library, ThS fluorescence net change.
Where [5] appears, read: 1280-compound library screen, […].
[6] abbreviates: library screen, ThS fluorescence net change over 16 h with p-tau.

Where a name gives a salt, the structure may show the parent alone.

On to `NC(=O)N1c2ccccc2C=Cc2ccccc21` [Carbamazepine], for which the ThS net change under setting [1] came out at 370.
`COc1cc2nc(N3CCN(C(=O)c4ccco4)CC3)nc(N)c2cc1OC` [Prazosin hydrochloride]: the ThS net change under setting [2] was found to be 367.
Turning to `CCOC(=O)C1=C(C)NC(C)=C(C(=O)OC)C1c1cccc([N+](=O)[O-])c1` (stereo not drawn) [Nitrendipine], the ThS net change under setting [1] was determined as 344.
The molecule `CNS(=O)(=O)Cc1ccc2[nH]cc(CCN(C)C)c2c1` [Sumatriptan succinate] displayed a ThS net change under setting [3] of 393.
Same read-out and setting: the result for `CCCCNc1ccc(C(=O)OCCN(C)C)cc1.Cl` [Tetraca?ne hydrochloride] reads 401; that for `CC[N+](CC)(CC)CCC(O)(c1ccccc1)C1CCCCC1.[Cl-]` (stereo not drawn) [Tridihexethyl chloride], 402.
On to `Cn1cnc2c1c(=O)[nH]c(=O)n2C` [Theobromine], for which, under setting [3], the ThS net change is 392.
The molecule `CN(C/C=C/c1ccccc1)Cc1cccc2ccccc12` [Naftifine hydrochloride] yielded a ThS net change under setting [4] of 539.
`C[C@H](N)[C@H](O)c1ccc(O)c(O)c1` [Levonordefrin] yielded a ThS net change under setting [5] of 387.
Consider `C[C@]12CCC(=O)C=C1CC[C@@H]1[C@@H]2[C@@H](O)C[C@@]2(C)[C@H]1CC[C@]2(O)C(=O)CO` [Hydrocortisone base], for which, under setting [3], the ThS net change worked out at 398.
With `CC(=O)[C@@]12O[C@](C)(c3ccccc3)O[C@@H]1C[C@H]1[C@@H]3CCC4=CC(=O)CC[C@]4(C)[C@H]3CC[C@@]12C` [Algestone acetophenide], under setting [2], the ThS net change is 336.
Turning to `Cc1cccc(C)c1NC(=O)CN1CCN(CCCC(c2ccc(F)cc2)c2ccc(F)cc2)CC1` [Lidoflazine], under setting [1], the ThS net change was 341.
`O=c1[nH]c(=O)n(C2CCCO2)cc1F` (stereo not drawn) [Tegafur] yielded a ThS net change under setting [4] of 448.
As to `OC(CCN1CCCCC1)(c1ccccc1)C1CC2C=CC1C2` (stereo not drawn) [Biperiden hydrochloride], the ThS net change under setting [3] worked out at 380.
Under setting [5], `O=P(O)(O)C(O)(Cn1ccnc1)P(=O)(O)O` [Zoledronic acid hydrate] yielded a ThS net change of 398.
Under setting [4], `Cc1[nH]cnc1CN1CCc2c(c3ccccc3n2C)C1=O` [Alosetron hydrochloride] yielded a ThS net change of 429.
`O=C(O)Cc1ccccc1Nc1c(Cl)cccc1Cl` [Diclofenac sodium] returned a ThS net change under setting [1] of 376.
`CN(C)CCCN1c2ccccc2Sc2ccccc21` [Promazine hydrochloride] yielded a ThS net change under setting [6] of 306.
Take `CCN(CC)C(=O)/C(C#N)=C/c1cc(O)c(O)c([N+](=O)[O-])c1` [Entacapone]: the ThS net change under setting [6] worked out at 199.
For the molecule `Cc1oncc1C(=O)Nc1ccc(C(F)(F)F)cc1` [Leflunomide], the ThS net change under setting [1] turned out to be 344.
Under setting [3], `C[C@@H]1CN(c2c(F)c(N)c3c(=O)c(C(=O)O)cn(C4CC4)c3c2F)C[C@H](C)N1` [Sparfloxacin] yielded a ThS net change of 403.
`CN1CCCN(C(c2ccccc2)c2ccc(Cl)cc2)CC1.Cl.Cl` (stereo not drawn) [Homochlorcyclizine dihydrochloride]: under setting [2], the ThS net change is 343.
For `CC[C@]12CCCN3CCc4c(n(c5ccccc45)[C@@](O)(C(=O)OC)C1)[C@@H]32` [Vincamine], the ThS net change under setting [1] amounted to 348.
`CC(CN(C)C)CN1c2ccccc2Sc2ccccc21.CC(CN(C)C)CN1c2ccccc2Sc2ccccc21.O=C(O)C(O)C(O)C(=O)O` (stereo not drawn) [Trimeprazine tartrate] returned a ThS net change under setting [1] of 354.
Molecule `CC(N)CCCC(C)(C)O` (stereo not drawn) [Heptaminol hydrochloride] returned a ThS net change under setting [1] of 362.
As to `CC(Cc1cccc(C(F)(F)F)c1)NCCOC(=O)c1ccccc1` (stereo not drawn) [Benfluorex], the ThS net change under setting [1] was found to be 375.
On the same count and under the same terms, the result for `Cn1cnc([N+](=O)[O-])c1Sc1ncnc2nc[nH]c12` [Azathioprine] reads 367.
As for `CCOC(=O)C1=C(C)NC(C)=C(C(=O)OCC)C1c1ccccc1/C=C/C(=O)OC(C)(C)C` [Lacidipine], the ThS net change under setting [4] was 452.
In the case of `O=C(O)c1ccccc1OP(=O)(O)O` [Fosfosal], under setting [3], the ThS net change came out at 380.
Still for that read-out and setting: in the case of `COc1ccc(C(=O)NCc2ccc(OCCN(C)C)cc2)cc1OC` [Itopride] it was 405.
Molecule `c1ccc2[nH]c(-c3cscn3)nc2c1` [Tiabendazole] had a ThS net change under setting [1] of 355.
On the same count and under the same terms, the result for `CN(C)CCN1C(=O)c2ccccc2N(C)c2ccccc21.Cl` [Dibenzepine hydrochloride] reads 368; that for `CN(Cc1cnc2nc(N)nc(N)c2n1)c1ccc(C(=O)NC(CCC(=O)O)C(=O)O)cc1` (racemic) [Amethopterin (R,S)], 373.
Under setting [5], `CN1CCc2c(c3ccccc3n2Cc2ccccc2)C1.O=S(=O)(O)c1cccc2c(S(=O)(=O)O)cccc12` [Mebhydroline 1,5-naphtalenedisulfonate] registered a ThS net change of 385.
In the case of `CC1(C)S[C@@H]2[C@H](NC(=O)[C@H](NC(=O)N3CCNC3=O)c3ccccc3)C(=O)N2[C@H]1C(=O)O` [Azlocillin sodium salt], the ThS net change under setting [3] is 396.
Under setting [1], `Cc1cn[nH]c1` [Fomepizole] displayed a ThS net change of 344.
The same measure, in the same setting: the result for `CC1=NS(=O)(=O)c2cc(Cl)ccc2N1` [Diazoxide] reads 354.
The molecule `N#Cc1cc(NC(=O)C(=O)O)c(Cl)c(NC(=O)C(=O)O)c1` [Lodoxamide] returned a ThS net change under setting [3] of 409.
`CC(C(=O)O)c1ccc2c(c1)[nH]c1ccc(Cl)cc12` (stereo not drawn) [Carprofen]: the ThS net change under setting [4] was determined as 478.
For the molecule `CN(C)CCC(c1ccccc1)c1ccccn1` (stereo not drawn) [Pheniramine maleate], under setting [6], the ThS net change was found to be 318.
Turning to `CS(=O)(=O)c1ccc(C2=C(c3ccccc3)C(=O)OC2)cc1` [Rofecoxib], the ThS net change under setting [3] is 396.
For the molecule `C#C[C@]1(O)CC[C@H]2[C@@H]3CCC4=C(CCC(=O)C4)[C@H]3CC[C@@]21C` [Norethynodrel], under setting [1], the ThS net change was 341.
In turn, `CC(C)C[C@H](NC(=O)[C@@H](O)[C@H](N)Cc1ccccc1)C(=O)O` [Ubenimex] gave a ThS net change under setting [3] of 390.
Same read-out and setting: the result for `COc1cc(N)c(Cl)cc1C(=O)NC1CCN(Cc2ccccc2)CC1` [Clebopride maleate] reads 406.
In the case of `NCCc1ccc(O)c(O)c1` [Dopamine, reference compound], the “effect on p-tau aggregation in pilot screen” value (30 µM compound, 6 µM p-tau, 16 h) is reported as “none of them affected p-tau aggregation”.
`CCN(CC)CC#CCOC(=O)C(O)(c1ccccc1)C1CCCCC1` (stereo not drawn) [Oxybutynin chloride]: the ThS net change under setting [3] amounted to 400.
The same measure, in the same setting: in the case of `CCN1C(=O)NC(c2ccccc2)C1=O` (stereo not drawn) [Ethotoin] it was 394.
For the molecule `CO[C@]12C[C@@H](COC(=O)c3cncc(Br)c3)CN(C)[C@@H]1Cc1cn(C)c3cccc2c13` [Nicergoline], the ThS net change under setting [6] is given as 260.
Same read-out and setting: in the case of `CN(C)CC/C=C1\c2ccccc2CSc2ccccc21` [Dosulepin hydrochloride] it was 311.
Under setting [1], `NC(=O)c1cnccn1` [Pyrazinamide] had a ThS net change of 370.
Regarding `Br.CN1[C@@H]2CC[C@H]1C[C@@H](OC(=O)C(O)c1ccccc1)C2` (stereo partly drawn) [Homatropine hydrobromide (R,S)], the ThS net change under setting [2] came to 332.
`CCC[C@H](N[C@@H](C)C(=O)N1[C@H](C(=O)O)C[C@@H]2CCCC[C@@H]21)C(=O)OCC` [Perindopril] returned a ThS net change under setting [4] of 426.
On to `NCCc1c[nH]cn1` [Histamine dihydrochloride], for which the ThS net change under setting [4] stood at 438.
Molecule Minoxidil had a ThS net change under setting [3] of 412.

Values taken from article PMC7539012, “Hyperphosphorylated tau aggregation and cytotoxicity modulators screen identified prescription drugs linked to Alzheimer's disease and cognitive functions” (Scientific Reports, 2020).
